Laboratory results: patent US20240262844A1, “PYRIDINIUM SALTS AND METHODS OF USE” (UNIVERSITY OF WYOMING, priority 2023, published 2024)
Where a name gives a salt, the structure may show the parent alone. Values belong to the compound of their own block, whether it stands above or below them.

Key:
[1] = biological target: T1, recombinant NPM1 C-terminal domain (residues 240-294) (Homo sapiens, UniProt P06748); assay: In vitro NPM1 C-terminal domain labeling (Western); type: biochemical
T1 construct: made in house; host or cells: NiCo21(DE3) E. coli
T1 sequence (P06748 240-294): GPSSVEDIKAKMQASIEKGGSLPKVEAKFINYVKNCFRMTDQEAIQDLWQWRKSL
Excerpt: NPM1 Construct design: NPM1 residues 240-294 corresponding to the C-terminal DNA binding domain were fused to a combined 6×His-maltose binding protein (MBP) solubility tag on the N-terminus. An HRV 3C protease cleavage sequence (LEVLFQ/GP) was placed between the tags and NPM1 sequence and upon cleavage the remaining GP sequence corresponds to the NPM1 240-241 residues resulting in a natural peptide sequence without additional residues.
In vitro NPM1 C-terminal domain labeling and characterization: Labeling of recombinant NPM1 with the pyridinium salt 2b was performed with the following conditions: 10 μM NPM1 was treated with DMSO or 100 μM pyridinium salt 2b (2% DMSO) in 50 mM HEPES pH 7.5, 150 mM NaCl, 1.5 mM MgCl2, and 100 μM glutathione (GSH). Samples were irradiated at 450 nm (Kessil PR160L-440) at 100% intensity for 15 minutes at room temperature or 50° C. The reaction mixture was quenched with the addition of 4X LDS buffer (Invitrogen) containing 10 mM DTT (Pierce) and boiled for 10 minutes before resolving proteins on 4-12% Bis-Tris NuPAGE gels (Invitrogen), transferred onto a Trans-Blot Turbo Mini 0.2 μm nitrocellulose membrane (BioRad), blocked with 5% BSA in tris-buffered saline with Tween-20 (TBST), and incubated with HRP-linked anti-biotin (Cell Signaling Technology, #7075).

[2] = Stern-Volmer fluorescence quenching analysis; type: physicochemical; settings: 100 μM pyridinium salt in 20 mM NH4OAc pH 6.9, increasing NATA, 375 nm excitation
Procedure: FIG. 7 is a Stern-Volmer plot of florescence quenching of pyridinium salt 2a with a small molecule tryptophan analog N-acetyltryptophanamide (NATA) according to at least one embodiment of the present disclosure. The Stern-Volmer plot was generated by excitation of a 100 μM solution of pyridinium salt 2a in 20 mM NH4OAc pH 6.9 in the presence of increasing concentrations of NATA. Analyses were performed at 375 nm excitation. The calculated Kq, assuming 11 (0.2548 ns) quenching, was determined to be about 1.019E5 M^−1s^−1. The calculated Kq, assuming τ2 (3.399 ns) quenching, was determined to be about 7.638E3 M^−1s^−1.

[3] = biological target: T2, PARP1 (Homo sapiens, UniProt P09874); assay: In-situ labeling and enrichment of PARP1 in HEK293T cells (MS-MS, Western); type: cell-based
T2 construct: endogenous in cells; host or cells: HEK293T
T2 sequence (P09874 whole entry): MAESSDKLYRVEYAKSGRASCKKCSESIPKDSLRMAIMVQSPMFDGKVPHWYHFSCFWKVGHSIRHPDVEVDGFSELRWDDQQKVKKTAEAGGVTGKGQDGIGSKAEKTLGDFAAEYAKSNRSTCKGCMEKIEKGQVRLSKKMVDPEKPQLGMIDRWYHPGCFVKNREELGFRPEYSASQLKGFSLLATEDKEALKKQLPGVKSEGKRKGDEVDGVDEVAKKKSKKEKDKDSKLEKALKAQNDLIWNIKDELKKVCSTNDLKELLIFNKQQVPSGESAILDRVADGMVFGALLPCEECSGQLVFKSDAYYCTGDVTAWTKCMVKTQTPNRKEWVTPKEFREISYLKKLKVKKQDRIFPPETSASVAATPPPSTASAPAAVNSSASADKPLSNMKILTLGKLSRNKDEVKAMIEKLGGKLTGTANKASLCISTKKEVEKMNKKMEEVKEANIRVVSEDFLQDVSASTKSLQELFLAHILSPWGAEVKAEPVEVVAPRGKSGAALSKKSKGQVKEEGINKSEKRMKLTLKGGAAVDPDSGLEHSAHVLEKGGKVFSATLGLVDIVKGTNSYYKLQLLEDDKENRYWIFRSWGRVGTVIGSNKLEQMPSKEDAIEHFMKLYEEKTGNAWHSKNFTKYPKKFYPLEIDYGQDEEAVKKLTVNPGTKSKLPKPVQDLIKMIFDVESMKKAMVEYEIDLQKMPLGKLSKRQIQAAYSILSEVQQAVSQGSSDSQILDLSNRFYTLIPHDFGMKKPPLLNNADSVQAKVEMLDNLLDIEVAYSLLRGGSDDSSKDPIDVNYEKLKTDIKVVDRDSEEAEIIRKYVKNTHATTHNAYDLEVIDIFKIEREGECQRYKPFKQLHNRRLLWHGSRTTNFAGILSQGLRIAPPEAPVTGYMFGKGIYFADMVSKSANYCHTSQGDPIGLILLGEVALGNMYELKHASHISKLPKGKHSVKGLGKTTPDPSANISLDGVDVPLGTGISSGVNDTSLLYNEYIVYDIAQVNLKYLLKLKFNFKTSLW
Procedure: (§1) Cell culture and in-situ tryptophan probe treatment: Cell lines were cultured at 37° C. with 5% C02. Human embryonic kidney 293 cells expressing a mutant version of the SV40 large T antigen (HEKT293T cells) were grown in Dulbecco's Modified Eagle Medium (DMEM, Gibco) supplemented with 10% fetal bovine serum and 1% penicillin/streptomycin. For in-situ labeling, cells were grown to 90% confluence, washed with Dulbecco's phosphate buffered saline (DPBS), treated with 100x stocks of the tryptophan probes (the pyridinium salts) in OptiMem (GibCo) to generate final concentrations (0 μM, 1 μM, 10 μM, and 100 μM) in 1% dimethylsulfoxide (DMSO). Cells were incubated for 1 hour at 37° C. with 5% C02 followed by photo-activation at the respective wavelengths for 20 minutes at 4° C. Cells were harvested with a cell scraper, washed 3× with DPBS, and pellets were stored at −80° C. until further use. […]
(§2) In-situ tryptophan probe sample processing for peptide-level characterization: Cell pellets were lysed via sonication (QSonica) at 50% amplitude, 2 seconds ON, 3 seconds OFF, 30 seconds in 40 mM HEPES pH 7.5 (4-(2-hydroxyethyl)-1-piperazineethanesulfonic acid), 1.5 mM magnesium chloride (MgCl2), 1% Sodium dodecyl sulfate (SDS), 0.8% NP-40 (also known as nonyl phenoxypolyethoxylethanol), and 1x protease inhibitors (Thermo). Protein concentration was determined by BCA (Pierce). […]

[4] = biological target: T3, NPM1 (Homo sapiens, UniProt P06748); assay: In-situ labeling and enrichment of NPM1 in HEK293T cells (MS-MS, Western); type: cell-based
T3 construct: endogenous in cells; host or cells: HEK293T
T3 sequence (P06748 whole entry): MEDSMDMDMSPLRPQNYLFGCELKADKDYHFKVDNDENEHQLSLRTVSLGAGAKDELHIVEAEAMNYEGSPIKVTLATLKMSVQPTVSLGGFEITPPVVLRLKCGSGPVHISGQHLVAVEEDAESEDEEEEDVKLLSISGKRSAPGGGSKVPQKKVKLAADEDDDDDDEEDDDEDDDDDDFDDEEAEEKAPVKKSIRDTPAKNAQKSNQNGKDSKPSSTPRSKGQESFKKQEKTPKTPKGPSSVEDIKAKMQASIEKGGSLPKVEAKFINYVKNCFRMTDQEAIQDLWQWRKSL
Procedure: as §1, §2
In-situ tryptophan probe sample processing for protein-level identification: Cell pellets were lysed via sonication (QSonica) at 50% amplitude, 2 seconds ON, 3 seconds OFF, 30 seconds in 50 mM HEPES pH 7.5, 1.5 mM MgCl2, 1% SDS, 0.8% NP-40, and 1x protease inhibitors (Thermo). Protein concentration was determined by BCA (Pierce). […]

[5] = chemoproteomic profiling, HEK293T cells
[6] = cultures irradiated with blue light in the presence of probe, protein-level enrichment

labeling of the construct (Western analysis) ([1]; 10 μM NPM1, 100 μM probe, 100 μM glutathione, about 440 nm, about 15 minutes): photo-dependent labeling
temperature dependence of labeling ([1]; labeling at about 50° C. versus room temperature): higher level of labeling
Structure (SMILES): COc1ccc2cc(-c3cc(C)[n+](N(C)C(=O)OCCCCC[C@H]4SC[C@H]5NC(=O)N[C@H]54)c(C)c3)ccc2c1 (stereo in doubt) [Pyridinium salt 2b, 4-(6-methoxynaphthalen-2-yl)-2,6-dimethyl-1-(methyl(((5-((3aR,4R,6aS)-2-oxohexahydro-1H-thieno[3,4-d]imidazol-4-yl)pentyl)oxy)carbonyl)amino)pyridin-1-ium tetrafluoroborate]

Structure (SMILES): COC(=O)N(C)[n+]1c(C)cc(-c2ccc3cc(OC)ccc3c2)cc1C [Pyridinium salt 2a, 1-((methoxycarbonyl)(methyl)amino)-4-(6-methoxynapthalen-2-yl)-2,6-dimethylpyridin-1-ium tetrafluoroborate]
calculated Kq, assuming τ1 (0.2548 ns) quenching [2]: about 1.019E5 M^−1s^−1
calculated Kq, assuming τ2 (3.399 ns) quenching [2]: about 7.638E3 M^−1s^−1

modified and dose-dependently enriched tryptophan residues [3, 5]: Trp79 and Trp318
PARP1 in enriched protein mixture (Western analysis) [3, 6]: found to contain both proteins
in-situ labeled tryptophan residue [4, 5]: Trp290
labeling of Trp288 [4, 5]: not labeled
NPM1 in enriched protein mixture (Western analysis) [4, 6]: found to contain both proteins
Structure (SMILES): COc1ccc2cc(-c3cc(C)[n+](N(C)C(=O)OCCCCCCN=[N+]=[N-])c(C)c3)ccc2c1 [Pyridinium salt 2d, 1-((((6-azidohexyl)oxy)carbonyl)(methyl)amino)-4-(6-methoxynaphthalen-2-yl)-2,6-dimethylpyridin-1-ium tetrafluoroborate]
